This note sets out measurements from ChEMBL document CHEMBL4613250, “Discovery of 4-((2S,4S)-4-Ethoxy-1-((5-methoxy-7-methyl-1H-indol-4-yl)methyl)piperidin-2-yl)benzoic Acid (LNP023), a Factor B Inhibitor Specifically Designed To Be Applicable to Treating a Diverse Array of Complement Mediated Diseases” (J Med Chem, 2020).

The IC50 is the concentration needed to halve the response being measured. As usually defined, the Vdss is the apparent volume that relates the amount in the body to the concentration in plasma or blood. Broadly, the MRT is a mean duration of stay, worked out from the concentration-time curve. The AUC(0-t) is the area under the concentration-time curve up to a stated or last time point. A low value points to low exposure. For orientation: bioavailability means the share of a dose that reaches the circulation, judged against a reference dose that is usually intravenous. A lower bioavailability goes with poor availability. Usually Cmax stands for the highest concentration seen after dosing. By clearance is commonly meant a measure of how efficiently the substance is removed, as volume per time. Lower therefore signals inefficient removal. The term half-life denotes the time needed for the level to fall by half in the phase considered. By Tmax is commonly meant the time at which the peak concentration occurs.

The target in one data set is Complement factor B (Mus musculus, UniProt P04186). Briefly: Inhibition of serine protease factor B in 50% mouse serum assessed as reduction in C3b deposition pre-incubated for 15 mins before activated zymosan A stimulation for 50 mins by ELISA. The data set is classed as cell-free. For orientation: An ELISA detects its analyte on a solid surface through an enzyme-linked reagent.

Data set [1] can be described thus: Volume of distribution at steady state in C57BL/6 mouse at 1 mg/kg, iv after 5 mins to 7 hrs by HPLC-MS/MS analysis. Type of data set: ADME, organism-based. The following applies: mouse, in vivo.
A short description of data set [2]: Half life in C57BL/6 mouse at 1 mg/kg, iv after 5 mins to 7 hrs by HPLC-MS/MS analysis. The data set is classed as ADME, organism-based. The following applies: mouse, in vivo.
Data set [3] can be described thus: Mean residence time in C57BL/6 mouse at 1 mg/kg, iv after 5 mins to 7 hrs by HPLC-MS/MS analysis. The following applies: mouse, in vivo. The data set is classed as ADME, organism-based.
Data set [4] in a line: AUC (0 to last) in C57BL/6 mouse at 10 mg/kg, po after 7 hrs by HPLC-MS/MS analysis. The data set is classed as ADME, organism-based. Also noted: dose 10 mg/kg, time 0 - last, route oral. The following applies: C57BL/6, mouse, in vivo.
Data set [5] in a line: Oral bioavailability in C57BL/6 mouse at 10 mg/kg after 5 mins to 7 hrs by HPLC-MS/MS analysis. The data set is classed as ADME, organism-based. The following applies: C57BL/6, mouse, in vivo.
The nature of data set [6]: Protein binding in mouse plasma at 5 uM. The data set is classed as ADME, cell-free. Conditions: read-out: PPB.
Data set [7] is described as follows: Protein binding in rat plasma at 5 uM. Type of data set: ADME, cell-free. Conditions: read-out: PPB.
A short description of data set [8]: Protein binding in dog plasma at 5 uM. Type of data set: ADME, cell-free, Canis lupus familiaris. Conditions: read-out: PPB.
Data set [9] in a line: Protein binding in human plasma at 5 uM. The following applies: read-out: PPB. Type of data set: ADME, cell-free.
Data set [10] is described as follows: AUC (0 to last) in brown Norway rat posterior eye cup at 10 mg/kg, po administered as single dose measured after 0.25 to 24 hrs by HPLC-MS/MS analysis. The data set is classed as ADME, organism-based.
A short description of data set [11]: Cmax in brown Norway rat posterior eye cup at 10 mg/kg, po administered as single dose measured after 0.25 to 24 hrs by HPLC-MS/MS analysis. The data set is classed as ADME, organism-based.
Data set [12] can be described thus: AUC (0 to last) in brown Norway rat retina at 10 mg/kg, po administered as single dose measured after 0.25 to 24 hrs by HPLC-MS/MS analysis. The data set is classed as ADME, organism-based. Also noted: dose 10 mg/kg, route oral, time 0 - last.
Data set [13] can be described thus: Cmax in brown Norway rat retina at 10 mg/kg, po administered as single dose measured after 0.25 to 24 hrs by HPLC-MS/MS analysis. Details: dose 10 mg/kg, route oral. Type of data set: ADME, organism-based.
Data set [14] in a line: AUC (0 to last) in brown Norway rat plasma at 10 mg/kg, po administered as single dose measured after 0.25 to 24 hrs by HPLC-MS/MS analysis. Type of data set: ADME, organism-based. Also noted: dose 10 mg/kg, time 0 - last, route oral.
The nature of data set [15]: Cmax in brown Norway rat plasma at 10 mg/kg, po administered as single dose measured after 0.25 to 24 hrs by HPLC-MS/MS analysis. The data set is classed as ADME, organism-based. Details: dose 10 mg/kg, route oral.
The species named for data set [16] is Mus musculus. Briefly: animal or person. The following applies: C57BL/6, po, 8 h, read-out: INH.
Data set [17] is filed under the species Mus musculus. Briefly: animal or person. The following applies: C57BL/6, po, 8 h, read-out: INH. This is another data set of the same source.
Data set [18] is filed under the species Mus musculus. Briefly: animal or person. The following applies: C57BL/6, po, 4 h, read-out: INH.
Data set [19] is filed under the species Mus musculus. Briefly: animal or person. The following applies: C57BL/6, po, 4 h, read-out: INH. This is another data set of the same source.
For data set [20], the species on record is Mus musculus. Briefly: animal or person. Conditions: C57BL/6, po, 4 h, read-out: INH. This is another data set of the same source.
The species named for data set [21] is Mus musculus. Briefly: animal or person. Conditions: C57BL/6, po, 4 h, read-out: INH. This is another data set of the same source.
The species named for data set [22] is Mus musculus. Briefly: animal or person. Conditions: C57BL/6, po, 4 h, read-out: INH. The source holds these as a separate data set.
The species named for data set [23] is Mus musculus. Briefly: animal or person. The following applies: C57BL/6, po, 4 h, read-out: INH. The source holds these as a separate data set.
Data set [24] is described as follows: Clearance in Wistar Han rat at 1 mg/kg, iv after 0.5 to 24 hrs by HPLC-MS/MS analysis. Type of data set: ADME, organism-based. Conditions: in vivo.
Data set [25] in a line: Volume of distribution at steady state in Wistar Han rat at 1 mg/kg, iv after 0.5 to 24 hrs by HPLC-MS/MS analysis. The data set is classed as ADME, organism-based. Conditions: in vivo, read-out: Vdss.
Data set [26] is described as follows: Half life in Wistar Han rat at 1 mg/kg, iv after 0.5 to 24 hrs by HPLC-MS/MS analysis. Conditions: in vivo. The data set is classed as ADME, organism-based.
Data set [27] can be described thus: Mean residence time in Wistar Han rat at 1 mg/kg, iv after 0.5 to 24 hrs by HPLC-MS/MS analysis. Type of data set: ADME, organism-based. The following applies: in vivo.
Data set [28] can be described thus: AUC/dose in Wistar Han rat at 1 mg/kg, iv after 0.5 to 24 hrs by HPLC-MS/MS analysis. The data set is classed as ADME, organism-based. Conditions: in vivo.
The nature of data set [29]: AUC/dose in Wistar Han rat at 30 mg/kg, po after 0.5 to 24 hrs by HPLC-MS/MS analysis. The data set is classed as ADME, organism-based. The following applies: in vivo.
Data set [30] can be described thus: Oral bioavailability in Wistar Han rat at 30 mg/kg after 0.5 to 24 hrs by HPLC-MS/MS analysis. Type of data set: ADME, organism-based. The following applies: in vivo.
Data set [31] in a line: Cmax/dose in Wistar Han rat at 30 mg/kg, po after 0.5 to 24 hrs by HPLC-MS/MS analysis. The data set is classed as ADME, organism-based. The following applies: in vivo.
Data set [32] is described as follows: Tmax in Wistar Han rat at 30 mg/kg, po after 0.5 to 24 hrs by HPLC-MS/MS analysis. The following applies: in vivo. Type of data set: ADME, organism-based.
A short description of data set [33]: Clearance in beagle dog at 0.1 mg/kg, iv after 15 mins to 24 hrs by HPLC-MS/MS analysis. Type of data set: ADME, organism-based, Canis lupus familiaris. Conditions: in vivo.
Data set [34] is described as follows: Volume of distribution at steady state in beagle dog at 0.1 mg/kg, iv after 15 mins to 24 hrs by HPLC-MS/MS analysis. The data set is classed as ADME, organism-based, Canis lupus familiaris. Conditions: in vivo, read-out: Vdss.
The nature of data set [35]: Half life in beagle dog at 0.1 mg/kg, iv after 15 mins to 24 hrs by HPLC-MS/MS analysis. The following applies: in vivo. Type of data set: ADME, organism-based, Canis lupus familiaris.
Data set [36] can be described thus: Mean residence time in beagle dog at 0.1 mg/kg, iv after 15 mins to 24 hrs by HPLC-MS/MS analysis. The data set is classed as ADME, organism-based, Canis lupus familiaris. The following applies: in vivo.
Data set [37] in a line: AUC/dose in beagle dog at 0.1 mg/kg, iv after 15 mins to 24 hrs by HPLC-MS/MS analysis. The data set is classed as ADME, organism-based, Canis lupus familiaris. Conditions: in vivo.
Data set [38] is described as follows: AUC/dose in beagle dog at 10 mg/kg, po after 15 mins to 24 hrs by HPLC-MS/MS analysis. The data set is classed as ADME, organism-based, Canis lupus familiaris. The following applies: in vivo.
Data set [39] in a line: Oral bioavailability in beagle dog at 10 mg/kg after 15 mins to 24 hrs by HPLC-MS/MS analysis. The following applies: in vivo. Type of data set: ADME, organism-based, Canis lupus familiaris.
Data set [40] can be described thus: Cmax/dose in beagle dog at 10 mg/kg, po after 15 mins to 24 hrs by HPLC-MS/MS analysis. The following applies: in vivo. Type of data set: ADME, organism-based, Canis lupus familiaris.
Data set [41] is described as follows: Tmax in beagle dog at 10 mg/kg, po after 15 mins to 24 hrs by HPLC-MS/MS analysis. Type of data set: ADME, organism-based, Canis lupus familiaris. The following applies: in vivo.
Data set [42] is filed under the species Canis familiaris. Briefly: animal or person. Conditions: Canis lupus familiaris, beagle, po, 6 h, read-out: INH.
The species entered for data set [43] is Canis familiaris. Briefly: animal or person. The following applies: Canis lupus familiaris, beagle, po, 12 h, read-out: INH.

Chain of Complement factor B (P04186 whole entry): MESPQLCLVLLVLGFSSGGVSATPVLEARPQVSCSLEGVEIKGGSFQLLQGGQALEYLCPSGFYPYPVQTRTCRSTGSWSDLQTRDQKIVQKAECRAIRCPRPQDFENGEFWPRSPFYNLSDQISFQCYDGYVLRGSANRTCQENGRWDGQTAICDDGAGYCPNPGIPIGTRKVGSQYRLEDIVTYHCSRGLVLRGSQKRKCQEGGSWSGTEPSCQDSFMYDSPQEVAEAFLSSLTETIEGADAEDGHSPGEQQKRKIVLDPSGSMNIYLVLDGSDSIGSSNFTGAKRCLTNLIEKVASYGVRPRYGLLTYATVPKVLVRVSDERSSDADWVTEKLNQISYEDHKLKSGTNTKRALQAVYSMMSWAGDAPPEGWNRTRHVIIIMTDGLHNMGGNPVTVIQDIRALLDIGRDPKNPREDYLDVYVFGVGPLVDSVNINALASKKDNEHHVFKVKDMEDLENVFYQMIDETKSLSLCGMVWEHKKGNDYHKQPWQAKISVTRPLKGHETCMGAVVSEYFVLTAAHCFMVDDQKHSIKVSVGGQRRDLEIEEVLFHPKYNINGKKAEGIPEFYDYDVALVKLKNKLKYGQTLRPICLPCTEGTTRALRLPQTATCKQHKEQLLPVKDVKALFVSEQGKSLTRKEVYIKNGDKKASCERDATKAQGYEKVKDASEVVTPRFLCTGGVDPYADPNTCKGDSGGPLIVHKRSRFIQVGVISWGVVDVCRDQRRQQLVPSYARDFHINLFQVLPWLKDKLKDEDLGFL

In the case of `CCO[C@H]1CCN(Cc2c(OC)cc(C)c3[nH]ccc23)[C@H](c2ccc(C(=O)O)cc2)C1` [IPTACOPAN], at Complement factor B, the half-maximal inhibitory concentration (IC50) worked out at 110 nM. The compound further came in with a Vdss in data set [1] of 6.6 L/kg. Besides, the t1/2 in [2] amounted to 7.2 h. For the same compound, the MRT in data set [3] was 1.6 h. Besides, the AUC(0-t) at 7 h in [4] turned out to be 7.6 µM·h. The same compound gave a bioavailability in [5] of 46%. The fraction unbound at 5 µM in data set [6], in data set [7], in [8] and in [9] was 0.26 to 0.43 throughout. Besides, the exposure AUC(0-t) in data set [10] came to 76.1 µM·h; in data set [12], 1.67 µM·h; in data set [14], 28.6 µM·h. Moreover, the Cmax amounted to 2500 nM in data set [11], 150 nM in [13] and 5100 nM in [15]. Further, the inhibition in vivo at 30 mg/kg was 83% in the data set listed under Mus musculus [16], 83% in the data set listed under Mus musculus [17], 100% in the data set listed under Mus musculus [18] and 100% in the data set listed under Mus musculus [21]. Besides, the figures for the inhibition in vivo at 20 mg/kg in the data set listed under Mus musculus [19] and in the data set filed under Mus musculus [22] were 92% and 79%, respectively. Also, the inhibition in vivo at 10 mg/kg in the data set listed under Mus musculus [20] is 72%; in the data set filed under Mus musculus [23] it was 60%.
As to `CCO[C@H]1CCN(Cc2c(OC)cc(C)c3[nH]ccc23)[C@H](c2ccc(C(=O)O)cc2)C1.Cl`, the clearance turned out to be 8 mL/min/kg in data set [24] and 2 mL/min/kg in data set [33]. The figures for the Vd in [25] and in [34] were 2.3 L/kg and 0.6 L/kg, respectively. For the same compound, the half-life was 7 h in [26] and 5.6 h in [35]. The figures for the mean residence time MRT in data set [27] and in [36] were 3.4 h and 5.5 h, respectively. Moreover, the AUC/dose worked out at 5200 nM·h in data set [28], 2100 nM·h in [29], 21000 nM·h in [37] and 12700 nM·h in data set [38]. For the same compound, the bioavailability in [30] was 40%; in data set [39], 60%. The Cmax/dose in data set [31] is recorded as 410 nM; in [40], 2200 nM. The time to peak (Tmax) in data set [32] was determined as 2 h; in data set [41], 0.8 h. Also, the inhibition in vivo at 3 mg/kg is 100% in the data set listed under Canis familiaris [42] and 55% in the data set filed under Canis familiaris [43].
